# Source: patent publication US20100031452A1, “AZO DYES” (Universite Catholique de Louvain, priority 2008, published 2010)
# Where two headings read alike, the source gives them in different places. Marks after values point to notes of the source that are not given here.
# What was measured:
# [1] = tested on: human intestinal cells (Caco-2); assay: Caco-2 cytotoxicity test; type: cell-based; settings: for Caco-2 cytotoxicity test (IC50 in g L^−1): Caco-2 human intestinal cells
# Experimental: (§1) Toxicity was assessed on human intestinal cells (Caco-2), bacterial cells (Lumistox assays) and fish eggs cells. Mutagenicity was assessed through classical Ames test.
# (§2) The toxicity of compound 4 has been measured on Caco-2 human cells as previously described, and compared with the toxicity of compound 1.
# Ames test: mutagenicity = type: cell-based; settings: classical Ames test
# Experimental: as §1
# [2] = tested on: bacterial cells (Lumistox assays); assay: Lumistox test (luminescence inhibition); type: cell-based
# Experimental: as §1
# fish eggs cells = assay: Fish egg test; type: in vivo; settings: for Fish egg test (IC50 in mg L^−1): in vivo
# Experimental: as §1
# Caco-2 cytotoxicity test = type: cell-based, human; settings: Caco-2 cells; Caco-2 human intestinal cells; read-out: Caco-2 cytotoxicity test (IC50 in g L^−1)
# Experimental: as §1, §2
# [3] = classical Ames test; published data; cited from earlier work
Structure (SMILES),Ames test: mutagenicity (Ames test: mutagenicity),Caco-2 cytotoxicity test (IC50 in g L^−1) [1] [µg/mL],Fish egg test (IC50 in mg L^−1) (fish eggs cells) [µg/mL],Lumistox test % of luminescence inhibition at maximal OD ([2]; at maximal OD) [%],other results
"O=C1c2ccccc2C(=O)c2c(/N=N\c3cccc(S(=O)(=O)O)c3)c(S(=O)(=O)O)cc(NC3CCCCC3)c21 [Compound 4, 4-Cyclohexylamino-9,10-dioxo-1-(3-sulfo-phenylazo)-9,10-dihydro-anthracene-2-sulfonic acid]",–,–,–,–,"toxicity less than the toxicity of compound 1 ([1]; Caco-2 human cells, FIG. 3, relative to compound 1): 30%"
CCN(CCO)c1ccc(N=Nc2ccc([N+](=O)[O-])cc2)cc1 [Disperse Red 1],Negative,>1000,250 to 500,–,Lumistox test % of luminescence inhibition at maximal OD ([2]; saturated solution): 61.3*** %
O=C(Nc1cc(S(=O)(=O)[O-])cc2cc(S(=O)(=O)[O-])c(N=Nc3cc(Nc4nc(Cl)nc(Nc5ccc(S(=O)(=O)[O-])cc5)n4)ccc3S(=O)(=O)[O-])c(O)c12)c1ccccc1.[Na+].[Na+].[Na+].[Na+] [Reactive Red 4],Negative,700 ± 60,500 to 1000,25.9,–
"Nc1c(S(=O)(=O)O)cc(/N=N/c2c(S(=O)(=O)O)cc(NC3CCCCC3)c3c2C(=O)c2ccccc2C3=O)c2c1C(=O)c1ccccc1C2=O [Compound 1, 1-[(4-amino-9,10-dioxo-3-sulfo-9,10-dihydroanthracen-1-yl)diazenyl]-4-cyclohexylamino-9,10-dioxo-9,10-dihydroanthracene-2-sulfonic acid]",Negative,–,–,–,"Lumistox test % of luminescence inhibition at maximal OD ([2]; up to a maximal optical density (OD) of 1800): 41.6** %; toxicity (in words) ([1]; in the range tested, with regards to other molecules available on the market): low toxicity; IC50 (Caco-2 cytotoxicity test): > 1000 µg/mL; IC50 (fish eggs cells; read-out: Fish egg test (IC50 in mg L^−1)): 294 µg/mL"
Nc1ccc2cc(S(=O)(=O)[O-])cc(O)c2c1N=Nc1ccc(Cl)cc1C(F)(F)F.[Na+] [Acid Red 299],Positive,>1000,250 to 500,50.2,–
Nc1c(N=Nc2ccc(-c3ccc(N=Nc4cc(S(=O)(=O)[O-])c5ccccc5c4N)cc3)cc2)cc(S(=O)(=O)[O-])c2ccccc12.[Na+].[Na+] [Direct Red 28],–,300 ± 20,<30,3.4,Ames test: mutagenicity [3]: Positive*
